The source of these data is patent US20090005444A1, “USE OF PROPOFOL PRODRUGS FOR TREATING ALCOHOL WITHDRAWAL, CENTRAL PAIN, ANXIETY OR PRURITUS” (XenoPort, Inc., priority 2007, published 2009).

One series concerns male beagle dogs. Nature of the series: Acute toxicity study, single oral dose in dogs. Type of series: in vivo. The procedure: Acute toxicity studies were also performed by orally administering a single dose of compound (2) formulated in water to groups of male beagle dogs at doses from about 25 mg-eq/kg to about 150 mg-eq/kg propofol.
The test system of another series is male rats. The series can be described thus: Multiple dose study in rats, oral once a day for five days. Type of series: in vivo. As to conditions: oral gavage once a day for five days, 49 to 97 mg-eq/kg propofol. The procedure:
Multiple dose studies in rats were performed by orally administering compound (2) formulated in water to groups of male rats at doses of 49 mg-eq/kg to 97 mg-eq/kg propofol for a period of five days, by oral gavages administered once a day.

The test system of the next series is rats. Nature of the series: Acute toxicity study, single oral dose in rats. The class given is in vivo. The procedure: Acute toxicity studies in rats were undertaken to assess the tolerance of a single oral dose of compound (2) formulated in water. […] Complete recovery from hypoactivity, sedation, and anesthesia occurred in all rats within about 8 hours after dosing. Doses above about 1552 mg-eq/kg (about 800 mg-eq/kg of propofol) were not tested.

In another series the test system is pruritus. As to conditions: subhypnotic doses; cholestasis and spinal morphine administration; cited from earlier work.
For a further series, the system named is anxiety. As to conditions: animal studies; cited from earlier work.
The subject of the next series is delirium tremens. As to conditions: sedative and subsedative doses of propofol; cited from earlier work.
The conditions of series [1]: oral dosing in rats; cited from earlier work.
The subject of a further series is central pain. As to conditions: subanesthetic dose 0.2 mg/kg IV; cited from earlier work.
[2] abbreviates: rats, single oral dose about 49 to about 388 mg-eq/kg propofol.
[3] abbreviates: rats, single oral dose about 582 to about 970 mg-eq/kg propofol.
[4] abbreviates: rats, single oral dose about 1164 to about 1552 mg-eq/kg propofol.

`CC(C)c1cccc(C(C)C)c1OC(=O)OC[C@H](N)C(=O)O` [compound (2), (S)-2-amino-3-(2,6-diisopropyl-phenoxycarbonyloxy)-propanoic acid]: the “tolerance of a single oral dose” value with male beagle dogs (formulated in water, about 25 to about 150 mg-eq/kg propofol) is on record as “well tolerated”. Also, the sedation or anesthesia entry with male beagle dogs (single oral dose about 25 to about 150 mg-eq/kg propofol) is given as “No sedation or anesthesia was observed”. Also, in the series on male rats, the adverse effects entry is reported as “No adverse effects were observed”, the sedation or anesthesia entry was “No sedation or anesthesia was observed” and the “tolerance of multiple oral doses” value is recorded as “well tolerated”. Also, in the series with rats (all rats, after single oral dose), the “time to complete recovery from hypoactivity, sedation, and anesthesia” value is ≤ 8 h. In the series with rats (rats, formulated in water, about 49 to about 1552 mg-eq/kg propofol), the “tolerance of a single oral dose” value is reported as “well tolerated”. Also, in the series with rats (setting [2]), the “onset of transient hypoactivity after dose” value is ≤ 30 min and the “transient hypoactivity maintained, time post dose” value is listed as “up to 4 hours”. In the series on rats (setting [3]), the “onset of sedation after dosing” value is ≤ 1.5 h and the “sedation continued, time post dose” value is “up to 4 hours”. Moreover, in the series with rats (setting [4]), the “anesthesia continued, time post dose” value was “up to 2 hours” and the “onset of anesthesia after dosing” value is ≤ 1 h.
Take `CC(C)c1cccc(C(C)C)c1O` [propofol, 2,6-diisopropylphenol]: the effect on pruritus entry in the series with pruritus was “effective in controlling pruritus associated with cholestasis and spinal morphine administration”. The anxiolytic effect entry with anxiety is on record as “exerts an anxiolytic effect independent of any sedative effect”. The “effect on symptoms of delirium tremens” value in the series with delirium tremens was “effective in reducing the symptoms of delirium tremens”. The “administered drug undergoing first pass metabolism” value in series [1] is recorded as “approximately 90%”. In the series on central pain, the “effect on SCIP and CPSP central pain” value was “effective in reducing both SCIP and CPSP central pain”.
